Test system: Erysiphe [syn. Blumeria] graminis forma specialis. tritici
Assay: Activity against mildew of wheat (protective spray test on potted wheat seedlings)
Type: in vivo
Conditions: wheat seedlings cv. Kanzler, rated after 7 days
Protocol: The active compounds, separately or together, were formulated as a 10% emulsion in a mixture of 63% by weight of cyclohexanone and 27% by weight of emulsifier, and diluted with water to the desired concentration.
Evaluation was carried out by determining the infected leaf areas in percent. These percentages were converted into efficacies. The efficacy (w) was calculated as follows using Abbot's formula: [formula] • α corresponds to the fungal infection of the treated plants in % and • β corresponds to the fungal infection of the untreated (control) plants in %
An efficacy of 0 means that the infection level of the treated plants corresponds to that of the untreated control plants; an efficacy of 100 means that the treated plants were not infected.
The expected efficacies of the mixtures of the active compounds were determined using Colby's formula [R. S. Colby, Weeds 15, 20-22 (1967)] and compared with the observed efficacies. E =x+y−x·y/100 Colby's formula: • E expected efficacy, expressed in % of the untreated control, when using the mixture of the active compounds A and B at the concentrations a and b • x efficacy, expressed in % of the untreated control, when using active compound A at a concentration of a • y efficacy, expressed in % of the untreated control, when using active compound B at a concentration of b
Activity Against Mildew of Wheat Caused by Erysiphe [syn. Blumeria] graminis forma Specialis. tritici
Leaves of wheat seedlings of the cultivar “Kanzler” grown in pots were sprayed to runoff point with an aqueous preparation of active compound which had been prepared from a stock solution comprising 10% of active compound, 85% of cyclohexanone and 5% of emulsifier. 24 hours after the spray coating had dried on, the plants were dusted with spores of mildew of wheat (Erysiphe [syn. Blumeria] graminis forma specialis. tritici). The test plants were then placed in a greenhouse at 20-24° C. and 60-90% relative atmospheric humidity. After 7 days, the extent of the mildew development was determined visually in % infection of the entire leaf area.
The visually determined values for the percentage of infected leaf areas were converted into efficacies in % of the untreated control. An efficacy of 0 means the same degree of infection as in the untreated control, an efficacy of 100 means 0% infection. The expected efficacies for combinations of active compounds were determined using Colby's formula (Colby, S. R. (Calculating synergistic and antagonistic responses of herbicide Combinations”, Weeds, 15, p. 20-22, 1967) and compared to the observed effacacies.

[1] = 1 ppm in the spray liquor, inoculated 24 h after spraying

Measured: Efficacy in % of the untreated control

COC(=O)N(OC)c1ccccc1COc1ccn(-c2ccc(Cl)cc2)n1 [pyraclostrobin]
0%: 0.06 ppm in the spray liquor | 0.25 ppm in the spray liquor | [1]

CO/N=C(/C(=O)OC)c1ccccc1COc1ccccc1C [kresoxim-methyl]
0%: 0.06 ppm in the spray liquor | 0.25 ppm in the spray liquor | [1]

CO/C=C(/C(=O)OC)c1ccccc1Oc1cc(Oc2ccccc2C#N)ncn1 [azoxystrobin]
0%: 0.015 ppm in the spray liquor | 0.25 ppm in the spray liquor | [1]
